Laboratory results as given in patent US20080182895A1 (priority 2006, published 2008).
≈ marks a conversion by molar mass, not a printed value. Where “and” joins values, the source holds several entries; their conditions need not be identical. Equal entries are not always repeated. Where two headings read alike, the source gives them in different places.

Legend:
[1] = system: HCV NS5B enzyme BB7-M414V; assay: NS5B polymerase biochemical assay; parameters: species or system Hepatitis C virus genotype 1b; conditions: BB7-M414V vs BB7 (C316)
Method: (§1) All NS5B enzymes were expressed and purified according to the protocol for NS5B-BB7dCT21-His as described (Howe et al. (2004) Antimicrobial Agents Chem. 48:4813-21). Briefly, expression plasmids were transformed into E. coli cells and NS5B expression was initiated by the addition of isopropyl-beta-D-thiogalactopyranoside (IPTG). After 4 to 6 hours of incubation the cells were harvested and lysed. NS5B enzymes were purified by chromatography using a nickel affinity column (Talon, B D Biosciences, Clontech Laboratories, Inc., Mountain View, Calif.)) followed by a cation exchange column (Poros H S, Applied Biosystems, Foster City, Calif.).

[2] = system: HCV NS5B enzyme BB7-C316F; assay: NS5B polymerase biochemical assay; parameters: species or system Hepatitis C virus genotype 1b; conditions: BB7-C316F vs BB7 (C316)
Method: as §1

[3] = molecular target: T1, HCV NS5B enzyme BB7-I363V (Hepatitis C virus genotype 1b, UniProt Q9WMX2, I2782V); assay: NS5B polymerase biochemical assay
T1 construct: To prepare expression plasmid NS5B-BB7dCT21-His(1363V); His (C); made in house; host or cells: E. coli
Method: as §1

[4] = system: HCV NS5B enzyme BB7-C316N; assay: NS5B polymerase biochemical assay; parameters: species or system Hepatitis C virus genotype 1b; conditions: BB7-C316N vs BB7 (C316)
Method: as §1

[5] = system: HCV NS5B enzyme BB7-M414I; assay: NS5B polymerase biochemical assay; parameters: species or system Hepatitis C virus genotype 1b; conditions: BB7-M414I vs BB7 (C316)
Method: as §1

[6] = molecular target: T2, HCV NS5B enzyme BB7-C316N (Hepatitis C virus genotype 1b, UniProt Q9WMX2, C2735N); assay: NS5B polymerase biochemical assay
T2 construct: To prepare expression plasmid NS5B-BB7dCT21-His(C316N); His (C); made in house; host or cells: E. coli
Method: as §1

HCV NS5B enzyme BK-N316C = molecular target: T3, HCV NS5B enzyme BK-N316C (Hepatitis C virus genotype 1b, UniProt P26663, N2735C); assay: NS5B polymerase biochemical assay
T3 construct: the NS5B enzyme derived from the genotype 1b BK isolate; His (C); made in house; host or cells: E. coli
Method: as §1

[7] = molecular target: T4, HCV NS5B enzyme BB7-C316F (Hepatitis C virus genotype 1b, UniProt Q9WMX2, C2735F); assay: NS5B polymerase biochemical assay
T4 construct: NS5B-BB7dCT21-His(C316F/S/Y/N); His (C); made in house; host or cells: E. coli
Method: as §1

[8] = molecular target: T5, HCV NS5B enzyme BB7-M414I (Hepatitis C virus genotype 1b, UniProt Q9WMX2, M2833I); assay: NS5B polymerase biochemical assay
T5 construct: To prepare expression plasmid NS5B-BB7dCT21-His(M414I); His (C); made in house; host or cells: E. coli
Method: as §1

[9] = molecular target: T6, HCV NS5B enzyme BB7-M414V (Hepatitis C virus genotype 1b, UniProt Q9WMX2, M2833V); assay: NS5B polymerase biochemical assay
T6 construct: NS5B-BB7dCT21-His(M414T/V/I); His (C); made in house; host or cells: E. coli
Method: as §1

[10] = molecular target: T7, HCV NS5B enzyme BB7-C316Y (Hepatitis C virus genotype 1b, UniProt Q9WMX2, C2735Y); assay: NS5B polymerase biochemical assay
T7 construct: To prepare expression plasmid NS5B-BB7dCT21-His(C316Y); His (C); made in house; host or cells: E. coli
Method: as §1

physchem = conditions: plasma or biological fluid
1b, BB7 replicon (WT) = assay: Replicon 3-day assay, wild type; assay type: cell-based, Hepatitis C virus; conditions: for EC50: Hepatitis C virus
Method: pBB7-replicon variant DNAs were linearized with Sca I, and in vitro transcription was performed using Ambion's […]® T7 High Yield Transcription kit (Austin, Tex.). Purified RNA transcripts were electroporated into Huh-7 cells in quadruplicates using a Biorad GENE PULSER® Electroporation System (Setting: 270V, 950 μF) (Hercules, Calif.). Stably transfected replicon variant cell lines were initially selected with 0.25 mg/ml G418 and stepped up to 1 mg/ml before further testing. One cell plate was stained with Crystal Violet to visualize the number of colonies and determine the colony formation efficiency. Individual cell clones from each plate were pooled and expanded for drug susceptibility testing.
The contribution of individual amino acid changes on drug resistance was assessed in replicon variants containing single amino acid mutations in NS5B in the background of the genotype 1b, BB7 adaptive replicon (Blight et al. (2000) Science 290:1972-74).
Drug susceptibility of the replicon-containing cells to various compounds was evaluated as described previously (Howe et al. (2004) Antimicrobial Agents Chem. 48:4813-21). Briefly, cells were treated with increasing concentrations of compounds in medium containing 2% FCS and no G418 for three days at 37° C. and 5% CO2. After incubation, total RNA from the replicon-containing cells was isolated. The levels of HCV, glyceraldehyde 3-phosphate dehydrogenase (GAPDH) and ribosomal (rRNA) RNAs were quantified using TAQMAN® (PE Applied Biosystems, Foster City, Calif.) reverse transcriptase PCR reactions. The amounts of HCV, 18S ribosomal, and GAPDH RNAs in each sample were estimated by comparing the number of cycles during the exponential phase of the PCR amplification with those in the corresponding standard curves. HCV RNA standards used for the construction of the standard curve were prepared by extracting the total RNA from the Clone A cells. The RNA sample was sent to National Genetics Institute to quantify HCV RNA. Total RNA extracted from Clone A cells was quantified by O.D.260 measurement and used for construction of the standard curves of rRNA and GAPDH. The concentrations of the compounds that inhibit 50% of the HCV RNA level (EC50) were determined using the MDL® LIFE SCIENCE WORKBENCH® (LSW) Data Analysis software (MDL Information Systems, San Leandro, Calif.) in Microsoft EXCEL®. The amounts of HCV or GAPDH RNAs in the samples were expressed as HCV RNA (copies) or GAPDH (ng), respectively, per μg of total RNA using rRNA as a marker for total RNA measurement.

T3 sequence (P26663 2420-2989 N2735C): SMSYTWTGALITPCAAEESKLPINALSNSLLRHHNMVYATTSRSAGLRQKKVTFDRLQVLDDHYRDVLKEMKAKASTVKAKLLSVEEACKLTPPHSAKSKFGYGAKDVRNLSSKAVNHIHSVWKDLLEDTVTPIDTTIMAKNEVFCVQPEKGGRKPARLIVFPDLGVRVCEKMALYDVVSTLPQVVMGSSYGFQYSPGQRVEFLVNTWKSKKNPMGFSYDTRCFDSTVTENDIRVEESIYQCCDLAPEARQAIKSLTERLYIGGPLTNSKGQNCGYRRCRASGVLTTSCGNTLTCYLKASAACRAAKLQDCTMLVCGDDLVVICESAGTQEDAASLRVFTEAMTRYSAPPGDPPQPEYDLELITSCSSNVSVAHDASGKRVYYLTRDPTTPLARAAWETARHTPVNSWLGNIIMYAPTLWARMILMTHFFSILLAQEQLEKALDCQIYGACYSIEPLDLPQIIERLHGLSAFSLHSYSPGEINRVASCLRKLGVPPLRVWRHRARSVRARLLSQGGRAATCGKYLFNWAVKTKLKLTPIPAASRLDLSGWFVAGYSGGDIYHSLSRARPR
T1 sequence (Q9WMX2 2420-2989 I2782V): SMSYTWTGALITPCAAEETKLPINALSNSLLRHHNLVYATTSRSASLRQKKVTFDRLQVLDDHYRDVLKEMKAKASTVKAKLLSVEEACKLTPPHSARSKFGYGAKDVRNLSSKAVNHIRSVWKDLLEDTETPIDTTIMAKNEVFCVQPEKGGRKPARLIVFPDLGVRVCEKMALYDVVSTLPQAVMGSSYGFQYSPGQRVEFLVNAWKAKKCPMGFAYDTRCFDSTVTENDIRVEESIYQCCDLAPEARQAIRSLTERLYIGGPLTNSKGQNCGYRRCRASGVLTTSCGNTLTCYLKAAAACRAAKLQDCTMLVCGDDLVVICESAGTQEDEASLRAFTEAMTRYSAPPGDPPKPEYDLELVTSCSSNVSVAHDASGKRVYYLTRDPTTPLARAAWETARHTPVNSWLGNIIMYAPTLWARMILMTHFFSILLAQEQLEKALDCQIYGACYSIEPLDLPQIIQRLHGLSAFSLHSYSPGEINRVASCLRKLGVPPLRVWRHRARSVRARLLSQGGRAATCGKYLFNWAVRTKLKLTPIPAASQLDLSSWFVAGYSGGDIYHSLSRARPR
T7 sequence (Q9WMX2 2420-2989 C2735Y): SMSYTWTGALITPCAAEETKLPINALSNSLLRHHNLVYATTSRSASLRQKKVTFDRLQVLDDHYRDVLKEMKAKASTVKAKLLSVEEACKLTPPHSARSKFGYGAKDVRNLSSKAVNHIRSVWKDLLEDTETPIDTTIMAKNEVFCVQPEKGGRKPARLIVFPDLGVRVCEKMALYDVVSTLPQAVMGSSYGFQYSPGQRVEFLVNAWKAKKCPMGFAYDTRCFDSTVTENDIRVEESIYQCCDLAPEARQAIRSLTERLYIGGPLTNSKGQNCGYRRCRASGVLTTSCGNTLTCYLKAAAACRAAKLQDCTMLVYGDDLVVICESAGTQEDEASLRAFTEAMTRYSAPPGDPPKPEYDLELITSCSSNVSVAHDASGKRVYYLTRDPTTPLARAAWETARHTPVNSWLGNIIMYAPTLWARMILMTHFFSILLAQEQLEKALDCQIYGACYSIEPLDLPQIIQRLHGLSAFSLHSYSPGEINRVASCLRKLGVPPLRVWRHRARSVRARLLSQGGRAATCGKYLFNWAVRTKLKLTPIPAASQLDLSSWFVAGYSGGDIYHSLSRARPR
T6 sequence (Q9WMX2 2420-2989 M2833V): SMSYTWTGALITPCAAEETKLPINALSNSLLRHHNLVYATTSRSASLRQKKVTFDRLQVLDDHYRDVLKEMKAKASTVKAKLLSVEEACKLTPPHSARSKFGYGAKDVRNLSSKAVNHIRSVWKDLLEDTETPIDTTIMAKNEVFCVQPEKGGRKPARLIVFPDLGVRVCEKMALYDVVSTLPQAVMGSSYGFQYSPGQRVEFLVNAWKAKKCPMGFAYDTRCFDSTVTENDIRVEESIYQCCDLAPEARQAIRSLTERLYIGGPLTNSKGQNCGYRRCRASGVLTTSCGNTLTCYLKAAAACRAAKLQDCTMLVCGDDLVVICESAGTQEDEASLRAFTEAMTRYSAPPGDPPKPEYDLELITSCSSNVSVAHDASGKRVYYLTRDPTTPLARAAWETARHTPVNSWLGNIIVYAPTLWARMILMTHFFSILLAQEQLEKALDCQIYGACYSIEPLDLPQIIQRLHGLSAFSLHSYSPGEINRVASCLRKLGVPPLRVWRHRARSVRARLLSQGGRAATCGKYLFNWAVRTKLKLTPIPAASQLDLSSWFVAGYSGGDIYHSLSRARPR
T2 sequence (Q9WMX2 2420-2989 C2735N): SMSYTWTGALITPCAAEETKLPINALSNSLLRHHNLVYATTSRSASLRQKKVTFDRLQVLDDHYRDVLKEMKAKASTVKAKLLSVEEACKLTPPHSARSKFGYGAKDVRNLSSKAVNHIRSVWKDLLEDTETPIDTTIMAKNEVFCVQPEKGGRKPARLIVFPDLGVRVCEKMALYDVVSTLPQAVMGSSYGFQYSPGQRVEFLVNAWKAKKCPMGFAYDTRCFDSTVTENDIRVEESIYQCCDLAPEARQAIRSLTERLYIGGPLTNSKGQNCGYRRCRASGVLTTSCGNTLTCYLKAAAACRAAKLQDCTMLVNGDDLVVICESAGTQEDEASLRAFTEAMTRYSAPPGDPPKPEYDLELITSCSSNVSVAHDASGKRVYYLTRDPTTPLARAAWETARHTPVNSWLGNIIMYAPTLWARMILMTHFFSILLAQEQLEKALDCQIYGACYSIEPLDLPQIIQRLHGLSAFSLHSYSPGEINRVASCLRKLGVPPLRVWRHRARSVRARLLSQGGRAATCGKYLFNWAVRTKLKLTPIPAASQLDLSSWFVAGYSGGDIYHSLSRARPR
T4 sequence (Q9WMX2 2420-2989 C2735F): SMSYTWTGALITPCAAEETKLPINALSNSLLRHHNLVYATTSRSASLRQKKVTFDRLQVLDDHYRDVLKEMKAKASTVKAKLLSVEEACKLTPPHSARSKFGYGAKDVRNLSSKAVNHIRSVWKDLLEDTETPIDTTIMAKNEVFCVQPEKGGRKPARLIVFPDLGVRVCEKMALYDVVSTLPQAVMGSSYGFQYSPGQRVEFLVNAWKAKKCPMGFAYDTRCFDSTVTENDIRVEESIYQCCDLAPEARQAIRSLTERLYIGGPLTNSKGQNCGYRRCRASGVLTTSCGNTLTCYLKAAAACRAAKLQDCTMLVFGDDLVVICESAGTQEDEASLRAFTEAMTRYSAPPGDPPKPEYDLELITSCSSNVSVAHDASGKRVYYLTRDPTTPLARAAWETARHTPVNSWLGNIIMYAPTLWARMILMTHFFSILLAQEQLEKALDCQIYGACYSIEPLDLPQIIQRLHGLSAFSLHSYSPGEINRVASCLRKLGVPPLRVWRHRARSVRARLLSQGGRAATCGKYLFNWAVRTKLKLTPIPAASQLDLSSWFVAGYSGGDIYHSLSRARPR
T5 sequence (Q9WMX2 2420-2989 M2833I): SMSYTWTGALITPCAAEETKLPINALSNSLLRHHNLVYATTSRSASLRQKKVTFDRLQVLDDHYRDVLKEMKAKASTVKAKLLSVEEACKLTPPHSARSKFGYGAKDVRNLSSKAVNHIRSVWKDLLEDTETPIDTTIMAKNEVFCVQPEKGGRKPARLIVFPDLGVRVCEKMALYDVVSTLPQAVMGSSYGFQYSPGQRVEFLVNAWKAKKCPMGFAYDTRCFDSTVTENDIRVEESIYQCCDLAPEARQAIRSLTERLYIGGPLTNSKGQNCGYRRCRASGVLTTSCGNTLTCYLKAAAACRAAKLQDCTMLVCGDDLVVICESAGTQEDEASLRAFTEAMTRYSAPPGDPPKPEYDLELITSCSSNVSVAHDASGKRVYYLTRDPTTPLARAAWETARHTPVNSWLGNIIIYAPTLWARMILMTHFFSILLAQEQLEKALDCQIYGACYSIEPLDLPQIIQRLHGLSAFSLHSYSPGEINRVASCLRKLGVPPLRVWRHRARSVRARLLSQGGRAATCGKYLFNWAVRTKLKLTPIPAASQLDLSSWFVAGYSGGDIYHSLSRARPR

SMILES: CNC(=O)c1c(-c2ccc(F)cc2)oc2cc(N(CCO)S(C)(=O)=O)c(C3CC3)cc12 [HCV-796, 5-cyclopropyl-2-(4-fluorophenyl)-6-[(2-hydroxyethyl)(methylsulfonyl)amino]-N-methyl-1-benzofuran-3-carboxamide]
- Susceptibility Relative to Wild type Enzyme [1]: 1.4-fold more
- Susceptibility Relative to Wild type Enzyme [2]: 124-fold less
- IC50 ([3]; BB7-I363V enzyme): 60 ± 10 nM
- Susceptibility Relative to Wild type Enzyme ([3]; BB7-I363V vs BB7 (C316)): 1.5-fold less
- Susceptibility Relative to Wild type Enzyme [4]: 2-fold less
- Susceptibility Relative to Wild type Enzyme [5]: 1.7-fold more
- IC50 [6]: 81 ± 42 nM
- IC50 (HCV NS5B enzyme BK-N316C): 31 ± 4 nM
- Susceptibility Relative to Wild type Enzyme (HCV NS5B enzyme BK-N316C; BK-N316C vs wild type BK (N316)): 4.5 fold more and 4.5-fold more
- IC50 [7]: 1510 ± 419 nM
- IC50 [8]: 24 ± 6 nM
- IC50 [9]: 28 ± 2 nM
- IC50 [10]: 320 ± 10 nM
- solubility (physchem): 56 µM (≈ 25 µg/mL)
- Viral Load Reduction (1b, BB7 replicon (WT); 1b, BB7, 2240 nM HCV-796, 3-day assay): 1.9 ± 0.3 log
- EC50 (1b, BB7 replicon (WT)): 8.6 nM
- EC50 (1b, BB7 replicon (WT); 72 h, 1b, BB7, 3-day assay, read-out: HCV RNA EC50 (nM) ± SD): 3 ± 1 nM
